The record followed here is ChEMBL document CHEMBL3638675, “Alkoxy pyrimidine PDE10 inhibitors” (2014).

Each structure is given as a SMILES string.

Chain of cAMP and cAMP-inhibited cGMP 3',5'-cyclic phosphodiesterase 10A (Q9Y233 whole entry): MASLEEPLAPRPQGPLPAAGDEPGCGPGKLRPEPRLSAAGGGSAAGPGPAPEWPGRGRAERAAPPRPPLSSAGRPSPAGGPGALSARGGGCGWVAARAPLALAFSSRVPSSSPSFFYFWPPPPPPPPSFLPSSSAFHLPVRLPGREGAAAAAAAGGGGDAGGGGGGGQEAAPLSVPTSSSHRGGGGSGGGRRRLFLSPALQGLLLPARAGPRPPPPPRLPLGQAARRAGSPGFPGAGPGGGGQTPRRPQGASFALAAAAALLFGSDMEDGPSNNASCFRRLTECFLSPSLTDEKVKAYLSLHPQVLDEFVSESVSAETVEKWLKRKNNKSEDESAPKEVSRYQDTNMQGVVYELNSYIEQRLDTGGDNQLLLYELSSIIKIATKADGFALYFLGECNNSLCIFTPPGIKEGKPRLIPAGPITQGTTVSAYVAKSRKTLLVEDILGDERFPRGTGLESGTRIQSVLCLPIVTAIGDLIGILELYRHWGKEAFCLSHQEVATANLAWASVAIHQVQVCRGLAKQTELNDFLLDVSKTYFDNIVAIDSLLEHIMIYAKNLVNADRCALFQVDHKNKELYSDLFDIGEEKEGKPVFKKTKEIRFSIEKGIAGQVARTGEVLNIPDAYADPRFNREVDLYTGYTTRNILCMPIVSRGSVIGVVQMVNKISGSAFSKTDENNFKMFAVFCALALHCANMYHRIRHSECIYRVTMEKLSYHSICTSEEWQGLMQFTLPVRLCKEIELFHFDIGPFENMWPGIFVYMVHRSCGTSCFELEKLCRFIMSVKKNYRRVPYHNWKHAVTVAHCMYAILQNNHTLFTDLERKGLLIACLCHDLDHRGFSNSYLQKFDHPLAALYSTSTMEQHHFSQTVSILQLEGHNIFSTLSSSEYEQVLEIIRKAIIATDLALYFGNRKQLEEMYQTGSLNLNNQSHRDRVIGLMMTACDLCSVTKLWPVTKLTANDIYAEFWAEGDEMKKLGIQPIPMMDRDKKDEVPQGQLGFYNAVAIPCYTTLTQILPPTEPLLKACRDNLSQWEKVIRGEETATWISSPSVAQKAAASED

The assay has as its target cAMP and cAMP-inhibited cGMP 3',5'-cyclic phosphodiesterase 10A (Homo sapiens, UniProt Q9Y233). The assay can be described thus: Fluorescence Polarization Assay: The activity of the compounds in accordance with the present invention as PDE10 inhibitors may be readily determined without undue experimentation using a fluorescence polarization (FP) methodology that is well known in the art (Huang, W., et al., J. Biomol Screen, 2002, 7: 215). […] In a typical experiment the PDE10 inhibitory activity of the compounds of the present invention was determined in accordance with the following experimental method. PDE10A2 was amplified from human fetal brain cDNA (Clontech, Mountain View, Calif.) using a forward primer corresponding to nucleotides 56-77 of human PDE10A2 (Accession No. AF127480, Genbank Identifier 4894716), containing a Kozak consensus sequence, and a reverse primer corresponding to nucleotides 2406-2413 of human PDE10A2.
For the compound `Cc1c(Cl)nc(OC[C@@H]2C[C@H]2c2ccc3ncccc3n2)nc1NCc1cnn(C)c1`, the inhibition constant (Ki) stood at 0.019 nM. In turn, `Cc1nc(C)c(CNc2nc(OC[C@@H]3C[C@H]3c3ccc4ccccc4n3)nc(Cl)c2C)s1` had a Ki of 0.0006 nM. In turn, `COc1nc(OC[C@H]2C[C@@H]2c2ccc3ncccc3n2)nc(NCc2cnn(C)c2)c1C` registered an inhibitory constant (Ki) of 0.17 nM. Against the preceding compound, the Ki is about 280-fold higher.
